Experimental data: the supplement of paper PMC11061612

Columns and labels:
[1] = compound: CC(=O)O[C@H]1C(=O)[C@@]2(C)[C@H]([C@H](OC(=O)c3ccccc3)[C@]3(O)C[C@H](OC(=O)[C@H](O)[C@@H](NC(=O)c4ccccc4)c4ccccc4)C(C)=C1C3(C)C)[C@]1(OC(C)=O)CO[C@@H]1C[C@@H]2O [Paclitaxel]; conditions: max 3 µM
Summary of the method: (§1)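 Cancer cell lines were seeded in 1536-well plates in 7.5 μl DMEM/F12 or RPMI with 10% FBS, held 24 hours at 37°C and 5% CO2, then dosed for 72 hours (final DMSO typically 0.2%). Viability was read by CellTiter-Glo 2.0 luminescence and scaled between blank-well and DMSO-well means. The single-agent IC50 comes from dose responses fitted to a two-parameter logistic curve with a non-linear mixed effects model.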

[2] = compound: CN(CC[C@H](CSC1=CC=CC=C1)NC2=C(C=C(C=C2)S(=O)(=O)NC(=O)C3=CC=C(C=C3)N4CCC(CC4)[C@H](C5=CC=CC=C5C6=CC=C(C=C6)Cl)O)S(=O)(=O)C(F)(F)F)CCO [AZD4320]; conditions: max 1 µM
Summary of the method: as §1

[3] = compound: O=c1[nH]cc(F)c(=O)[nH]1 [5-Fluorouracil]; conditions: max 20 µM
Summary of the method: as §1

[4] = compound: C=CCn1c(=O)c2cnc(Nc3ccc(N4CCN(C)CC4)cc3)nc2n1-c1cccc(C(C)(C)O)n1 [AZD1775]; conditions: max 3 µM
Summary of the method: as §1

[5] = compound: NC1(c2ccc(-c3nc4ccn5c(=O)[nH]nc5c4cc3-c3ccccc3)cc2)CCC1 [MK-2206]; conditions: max 10 µM
Summary of the method: as §1

[6] = compound: CN(C)CCCOc1ccc(-c2ccc3ncc4c(c3c2)n(C2CCOCC2)c(=O)n4C)cn1 [AZD0156]; conditions: max 3 µM
Summary of the method: as §1

[7] = compound: COc1cccc2c1C(=O)c1c(O)c3c(c(O)c1C2=O)C[C@@](O)(C(=O)CO)C[C@@H]3O[C@H]1C[C@H](N)[C@H](O)[C@H](C)O1 [Doxorubicin]; conditions: max 1 µM
Summary of the method: as §1

[8] = compound: Cc1c2c(nn1C)CSCc1cc(n(C)n1)CSc1cc(c3ccccc3c1)OCCCc1c(C(=O)O)n(C)c3c-2c(Cl)ccc13 [AZD5991]; conditions: max 1 µM
Summary of the method: as §1

[9] = compound: C[C@@H](c1ccc2nccn2c1)n1nnc2ncc(-c3cnn(C)c3)nc21 [Savolitinib]; conditions: max 1 µM
Summary of the method: as §1

[10] = compound: CCc1c2c(nc3ccc(O)cc13)-c1cc3c(c(=O)n1C2)COC(=O)[C@]3(O)CC [SN-38]; conditions: max 0.3 µM
Summary of the method: as §1

[11] = compound: Nc1ccn([C@@H]2O[C@H](CO)[C@@H](O)C2(F)F)c(=O)n1 [Gemcitabine]; conditions: max 0.3 µM
Summary of the method: as §1

[12] = compound: C[C@@H](Oc1cc(-c2cnn(C3CCNCC3)c2)cnc1N)c1c(Cl)ccc(F)c1Cl [Crizotinib]; conditions: max 10 µM
Summary of the method: as §1

[13] = compound: CC1=CN2[C@@H](C1)C=NC3=CC(=C(C=C3C2=O)OC)OCCCCCOC4=C(C=C5C(=C4)N=C[C@@H]6CC(=CN6C5=O)C)OC [SG3199]; conditions: max 0.001 µM
Summary of the method: as §1

[14] = compound: CC1(C)CCC(CN2CCN(c3ccc(C(=O)NS(=O)(=O)c4ccc(NCC5CCOCC5)c([N+](=O)[O-])c4)c(Oc4cnc5[nH]ccc5c4)c3)CC2)=C(c2ccc(Cl)cc2)C1 [Venetoclax]; conditions: max 1 µM
Summary of the method: as §1

[15] = compound: CC(=O)c1c(C)c2cnc(Nc3ccc(N4CCNCC4)cn3)nc2n(C2CCCC2)c1=O [Palbociclib]; conditions: max 10 µM
Summary of the method: as §1

[16] = compound: COc1cccc(OCCCN)c1-c1cc(Nc2cnc(C#N)cn2)n[nH]1 [Prexasertib]; conditions: max 1 µM
Summary of the method: as §1

[17] = compound: COc1cc([C@@H]2c3cc4c(cc3[C@@H](O[C@@H]3O[C@@H]5CO[C@@H](C)O[C@H]5[C@H](O)[C@H]3O)[C@H]3COC(=O)[C@H]23)OCO4)cc(OC)c1O [Etoposide]; conditions: max 10 µM
Summary of the method: as §1

[18] = compound: CC(=O)Nc1cccc(-n2c(=O)n(C3CC3)c(=O)c3c(Nc4ccc(I)cc4F)n(C)c(=O)c(C)c32)c1 [Trametinib]; conditions: max 1 µM
Summary of the method: as §1

[19] = compound: C1CC(C1)(C(=O)[O-])C(=O)[O-].N.N.[Pt+2] [Carboplatin]; conditions: max 10 µM
Summary of the method: as §1

[20] = compound: Cc1cc2ncnn2cc1Nc1ncc2c(n1)n(C1CCOCC1)c(=O)n2C [AZD7648]; conditions: max 10 µM
Summary of the method: as §1

[21] = compound: COc1cc2ncnc(Nc3ccc(F)c(Cl)c3)c2cc1OCCCN1CCOCC1 [Gefitinib]; conditions: max 10 µM
Summary of the method: as §1

[22] = compound: O=C(c1cc(Cc2n[nH]c(=O)c3ccccc23)ccc1F)N1CCN(C(=O)C2CC2)CC1 [Olaparib]; conditions: max 10 µM
Summary of the method: as §1

[23] = compound: COc1cc(Nc2ncc3c(n2)-c2ccc(Cl)cc2C(c2c(F)cccc2OC)=NC3)ccc1C(=O)O [Alisertib]; conditions: max 10 µM
Summary of the method: as §1

[24] = compound: CC(C)n1c(=O)n(C)c2cnc3cc(F)c(-c4ccc(OCCCN5CCCCC5)nc4)cc3c21 [AZD1390]; conditions: max 0.3 µM
Summary of the method: as §1

[25] = compound: O=C(Nc1ccc2[nH]nc(-c3ccncc3)c2c1)[C@@H]1CCN(CC(=O)N2CCN(c3ccc(-c4ncccn4)cc3)CC2)C1; conditions: max 5 µM
Summary of the method: as §1

[26] = compound: CS(=O)(=O)CCNCc1ccc(-c2ccc3ncnc(Nc4ccc(OCc5cccc(F)c5)c(Cl)c4)c3c2)o1 [Lapatinib]; conditions: max 10 µM
Summary of the method: as §1

[27] = compound: C[C@@H](Nc1cc(F)cc(F)c1)c1cc(C(=O)N(C)C)cc2c(=O)cc(N3CCOCC3)oc12 [AZD8186]; conditions: max 10 µM
Summary of the method: as §1

[28] = compound: N#Cc1cnc(Nc2cc(NC[C@H]3CNCCO3)c(C(F)(F)F)cn2)cn1 [SRA737]; conditions: max 10 µM
Summary of the method: as §1

[29] = compound: Cc1nc(-c2cn3c(n2)-c2ccc(-c4cnn(C(C)(C)C(N)=O)c4)cc2OCC3)n(C(C)C)n1 [Taselisib]; conditions: max 10 µM
Summary of the method: as §1

[30] = compound: C[C@@H]1COCCN1C2=NC(=NC(=C2)C3(CC3)[S@](=N)(=O)C)C4=C5C=CNC5=NC=C4 [AZD6738]; conditions: max 10 µM
Summary of the method: as §1

[31] = compound: CC1=C(C(=CC=C1)Cl)NC(=O)C2=CN=C(S2)NC3=CC(=NC(=N3)C)N4CCN(CC4)CCO [Dasatinib]; conditions: max 2 µM
Summary of the method: as §1

[32] = compound: Cn1cnc2c(F)c(Nc3ccc(Br)cc3Cl)c(C(=O)NOCCO)cc21 [Selumetinib]; conditions: max 10 µM
Summary of the method: as §1

[33] = compound: C1CN(CCC1(C(=O)N[C@@H](CCO)C2=CC=C(C=C2)Cl)N)C3=NC=NC4=C3C=CN4 [AZD5363]; conditions: max 10 µM
Summary of the method: as §1

[34] = compound: COc1nnc2ccc(N3CCC(c4ccc(OCCN5CCN(C)C(=O)[C@H]5C)cc4)CC3)nn12 [AZD5153]; conditions: max 1 µM
Summary of the method: as §1

[35] = compound: CCN(CCO)CCCOc1ccc2c(Nc3cc(CC(=O)Nc4cccc(F)c4)[nH]n3)ncnc2c1 [AZD2811]; conditions: max 1 µM
Summary of the method: as §1

Row | Cell Line | IC50, cell viability 72 h [1] | IC50, cell viability 72 h [2] | IC50, cell viability 72 h [3] | IC50, cell viability 72 h [4] | IC50, cell viability 72 h [5] | IC50, cell viability 72 h [6] | IC50, cell viability 72 h [7] | IC50, cell viability 72 h [8] | IC50, cell viability 72 h [9] | IC50, cell viability 72 h [10] | IC50, cell viability 72 h [11] | IC50, cell viability 72 h [12] | IC50, cell viability 72 h [13] | IC50, cell viability 72 h [14] | IC50, cell viability 72 h [15] | IC50, cell viability 72 h [16] | IC50, cell viability 72 h [17] | IC50, cell viability 72 h [18] | IC50, cell viability 72 h [19] | IC50, cell viability 72 h [20] | IC50, cell viability 72 h [21] | IC50, cell viability 72 h [22] | IC50, cell viability 72 h [23] | IC50, cell viability 72 h [24] | IC50, cell viability 72 h [25] | IC50, cell viability 72 h [26] | IC50, cell viability 72 h [27] | IC50, cell viability 72 h [28] | IC50, cell viability 72 h [29] | IC50, cell viability 72 h [30] | IC50, cell viability 72 h [31] | IC50, cell viability 72 h [32] | IC50, cell viability 72 h [33] | IC50, cell viability 72 h [34] | IC50, cell viability 72 h [35]
1 | KATOIII (Gastric Carcinoma) | > 3000 nM | > 1000 nM | 14300 nM | > 3000 nM | > 10000 nM | > 3000 nM | > 1000 nM | > 1000 nM | > 1000 nM | > 300 nM | > 300 nM | > 10000 nM | > 1 nM | > 1000 nM | > 10000 nM | 420 nM | > 10000 nM | 893 nM | > 10000 nM | > 10000 nM | > 10000 nM | > 10000 nM | 1790 nM | > 300 nM | 4460 nM | > 10000 nM | > 10000 nM | > 10000 nM | > 10000 nM | > 10000 nM | > 2000 nM | > 10000 nM | > 10000 nM | > 1000 nM | > 1000 nM
2 | MDA-MB-231 (Breast Carcinoma) | 456 nM | > 1000 nM | > 20000 nM | > 3000 nM | > 10000 nM | > 3000 nM | 592 nM | > 1000 nM | > 1000 nM | 109 nM | 184 nM | > 10000 nM | > 1 nM | > 1000 nM | > 10000 nM | 173 nM | > 10000 nM | 204 nM | > 10000 nM | > 10000 nM | > 10000 nM | > 10000 nM | > 10000 nM | > 300 nM | 1910 nM | > 10000 nM | > 10000 nM | > 10000 nM | > 10000 nM | 9530 nM | 1900 nM | 9410 nM | > 10000 nM | 374 nM | > 1000 nM
3 | NCI-H1299 (Non-Small Cell Lung Carcinoma) | 134 nM | > 1000 nM | > 20000 nM | 364 nM | > 10000 nM | > 3000 nM | 880 nM | > 1000 nM | > 1000 nM | > 300 nM | 239 nM | > 10000 nM | > 1 nM | > 1000 nM | > 10000 nM | 100 nM | > 10000 nM | 912 nM | > 10000 nM | > 10000 nM | > 10000 nM | > 10000 nM | > 10000 nM | > 300 nM | > 5000 nM | > 10000 nM | > 10000 nM | > 10000 nM | > 10000 nM | 9870 nM | 1570 nM | > 10000 nM | > 10000 nM | 184 nM | > 1000 nM
